Reference: publication PMC12527922, “Cocaine chemogenetics blunts drug-seeking by synthetic physiology” (Nature, 2025)
Where “and” joins values, the source holds several entries; their conditions need not be identical. Identical values can stand only once.

What was measured:
[1] = biological target: T1, coca-GlyR (Homo sapiens, UniProt P23415+P36544, G175K/L141G/Y217F); assay: [^3H]ASEM displacement, membranes of HEK293 cells expressing coca-GlyR; format: binding
T1 construct: expressed in transfected cells; host or cells: HEK293 (ATCC CRL-1573), pcDNA3.1
Description: (§1) Cells were suspended in Tris-HCl 50 mM pH 7.4 supplemented with protease inhibitor cocktail (1:100, Sigma-Aldrich). HEK293 cells were disrupted with a 6 Polytron homogenizer (Kinematica). Homogenates were centrifuged at 48,000g (50 min, 4 °C) and washed twice in the same conditions to isolate the membrane fraction. Protein was quantified using the bicinchoninic acid method (Pierce). […] Free and membrane-bound radioligands were separated by rapid filtration of 500 μl aliquots in a 96-well plate harvester (Brandel) and washed with 2 ml of ice-cold Tris-HCl buffer. Microscint-20 scintillation liquid (65 μl per well, PerkinElmer) was added to the filter plates, plates were incubated overnight at room temperature and radioactivity counts were determined in the MicroBeta2 plate counter (PerkinElmer) with an efficiency of 41%. Two-site competition curves were fitted using Prism 10 (GraphPad). Ki values were calculated using the Cheng–Prusoff equation.

[2] = biological target: coca-5HT3 (Homo sapiens, UniProt P36544, G175K/L141G/Y210F/Y217F); assay: [^3H]ASEM displacement, membranes of HEK293 cells expressing coca-5HT3; format: binding, human α7 nAChR LBD, mouse 5HT3 IPD; conditions: for [3H]ASEM binding, normalised dose-response (DR replicates): HotNM 2.000
Description: as §1

[3] = tested on: α7 nAChR; conditions: cited from earlier work
[4] = biological target: T2, unmodified α7–5HT3 (UniProt P23979+P36544); parameters: method as in PMID 30872534; conditions: cited from earlier work
T2 construct: expressed in transfected cells; host or cells: HEK293 (ATCC CRL-1573), pcDNA3.1

[5] = biological target: T3, unmodified α7–GlyR (Homo sapiens, UniProt P23415+P36544); parameters: method as in PMID 30872534; conditions: cited from earlier work
T3 construct: expressed in transfected cells; host or cells: HEK293 (ATCC CRL-1573), pcDNA3.1

[6] = Two sites - Fit Ki, best-fit value per replicate
[7] = Two sites - Fit Ki, best-fit value, single experiment

Sequence of coca-5HT3 (P23979 242-489): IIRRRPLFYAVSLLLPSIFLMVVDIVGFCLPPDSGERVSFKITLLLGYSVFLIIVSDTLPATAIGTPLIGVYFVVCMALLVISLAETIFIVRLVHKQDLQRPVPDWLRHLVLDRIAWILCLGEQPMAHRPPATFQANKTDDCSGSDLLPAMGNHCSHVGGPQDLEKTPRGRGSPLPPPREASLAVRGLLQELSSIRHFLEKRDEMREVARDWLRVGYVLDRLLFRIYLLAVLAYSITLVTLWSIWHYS
Sequence of coca-5HT3 (P36544 23-224 L141G/G175K/Y210F/Y217F): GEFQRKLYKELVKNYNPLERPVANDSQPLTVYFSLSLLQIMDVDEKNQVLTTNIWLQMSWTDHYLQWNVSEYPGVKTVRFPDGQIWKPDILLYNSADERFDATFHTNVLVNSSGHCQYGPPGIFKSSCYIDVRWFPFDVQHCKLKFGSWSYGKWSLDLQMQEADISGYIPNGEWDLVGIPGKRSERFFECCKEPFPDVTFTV
T3 sequence (P36544+P23415 fused): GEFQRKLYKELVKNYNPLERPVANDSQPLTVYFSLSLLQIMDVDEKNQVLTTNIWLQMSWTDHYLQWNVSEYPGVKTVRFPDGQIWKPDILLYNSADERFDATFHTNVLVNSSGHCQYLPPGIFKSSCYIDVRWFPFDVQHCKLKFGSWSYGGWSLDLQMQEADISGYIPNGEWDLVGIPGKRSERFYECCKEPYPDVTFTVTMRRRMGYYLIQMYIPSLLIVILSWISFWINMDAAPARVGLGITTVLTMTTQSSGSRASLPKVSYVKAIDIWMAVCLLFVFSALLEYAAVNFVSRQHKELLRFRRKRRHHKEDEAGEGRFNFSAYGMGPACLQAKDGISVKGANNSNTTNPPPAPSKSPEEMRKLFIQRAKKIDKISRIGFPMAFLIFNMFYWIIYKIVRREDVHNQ
T2 sequence (P36544+P23979 fused P36544:T225I/P36544:M226I): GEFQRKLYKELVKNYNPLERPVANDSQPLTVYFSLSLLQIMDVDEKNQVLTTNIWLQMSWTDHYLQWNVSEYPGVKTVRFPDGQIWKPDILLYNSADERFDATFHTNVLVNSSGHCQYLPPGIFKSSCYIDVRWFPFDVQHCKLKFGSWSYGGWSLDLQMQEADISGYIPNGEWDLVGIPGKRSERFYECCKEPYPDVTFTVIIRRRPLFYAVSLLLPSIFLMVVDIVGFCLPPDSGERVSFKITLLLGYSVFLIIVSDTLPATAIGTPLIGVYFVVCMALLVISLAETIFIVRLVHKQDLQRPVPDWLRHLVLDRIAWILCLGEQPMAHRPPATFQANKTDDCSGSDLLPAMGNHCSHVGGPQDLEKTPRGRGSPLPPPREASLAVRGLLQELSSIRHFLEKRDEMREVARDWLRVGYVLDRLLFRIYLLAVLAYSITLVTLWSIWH
T1 sequence (P36544+P23415 fused P36544:L141G/P36544:G175K/P36544:Y217F): as the sequence (P36544+P23415 fused) above, with L119G, G153K, Y195F counted along it

Structure (SMILES): O=S1(=O)c2cc(N3CCN4CCC3CC4)ccc2-c2cccc(F)c21 [ASEM]
- binding to coca-GlyR [1]: biphasic manner
- binding to coca-5HT3 [2]: biphasic manner
- FractionHi MEAN ([2]; Two sites - Fit Ki, MEAN of 3 experiments): 0.4238
- Bottom [2, 6]: -0.2261 and -1.876 and -13.02
- Top [2, 6]: 108.2 and 99.61 and 97.94
- FractionHi ([2]; Two sites - Fit Ki, best-fit value per replicate, fraction of high-affinity sites): 0.4342 and 0.3061 and 0.4229
- FractionHi [2, 7]: 0.4739 and 0.3529 and 0.4445
- Top [2, 7]: 103.6 and 103.2 and 103.8
- FractionHi MEAN ([2]; Two sites - Fit Ki, MEAN of replicates): 0.3877
- [3H]ASEM binding, normalised dose-response (DR replicates) ([2]; competitor log(M) -4): 0 and 2.042 and -2.042
- [3H]ASEM binding remaining, single experiment ([2]; competitor log(M) -5): 21.992 and 15.466 and 20.212
- [3H]ASEM binding, normalised dose-response (DR replicates) ([2]; competitor log(M) -5): 13.773 and 20.58
- [3H]ASEM binding remaining, single experiment ([2]; competitor log(M) -5.5): 26.835 and 27.725
- [3H]ASEM binding, normalised dose-response (DR replicates) ([2]; competitor log(M) -5.5): 32.147 and 34.87 and 51.889
- [3H]ASEM binding remaining, single experiment ([2]; competitor log(M) -6): 38.451 and 39.34
- [3H]ASEM binding, normalised dose-response (DR replicates) ([2]; competitor log(M) -6): 39.688 and 59.43 and 60.791
- [3H]ASEM binding remaining, single experiment ([2]; competitor log(M) -6.5): 45.049 and 48.906 and 53.356
- [3H]ASEM binding, normalised dose-response (DR replicates) ([2]; competitor log(M) -6.5): 51.256 and 70.998 and 34.237
- [3H]ASEM binding remaining, single experiment ([2]; competitor log(M) -7): 68.627 and 77.823 and 60.024
- [3H]ASEM binding, normalised dose-response (DR replicates) ([2]; competitor log(M) -7): 64.248 and 83.99 and 53.356
- [3H]ASEM binding remaining, single experiment ([2]; competitor log(M) -8): 69.758 and 69.462 and 44.246
- [3H]ASEM binding, normalised dose-response (DR replicates) ([2]; competitor log(M) -8): 67.668 and 43.16
- [3H]ASEM binding remaining, single experiment ([2]; competitor log(M) -8.5): 79.055 and 76.385 and 69.859
- [3H]ASEM binding, normalised dose-response (DR replicates) ([2]; competitor log(M) -8.5): 58.761 and 45.827 and 64.888
- [3H]ASEM binding remaining, single experiment ([2]; competitor log(M) -9): 118.645 and 95.803 and 67.325
- [3H]ASEM binding, normalised dose-response (DR replicates) ([2]; competitor log(M) -9): 68.4 and 67.719
- [3H]ASEM binding remaining, single experiment ([2]; competitor log(M) -9.5): 111.297 and 122.273 and 76.589
- [3H]ASEM binding, normalised dose-response (DR replicates) ([2]; competitor log(M) -9.5): 73.805 and 71.082 and 77.209
- [3H]ASEM binding remaining, single experiment ([2]; competitor log(M) -10): 101.728 and 95.202 and 81.556
- [3H]ASEM binding, normalised dose-response (DR replicates) ([2]; competitor log(M) -10): 78.63 and 99.734 and 90.884
- [3H]ASEM binding remaining, single experiment ([2]; competitor log(M) -10.5): 92.261 and 100.567 and 96.414
- [3H]ASEM binding, normalised dose-response (DR replicates) ([2]; competitor log(M) -10.5): 94.278 and 80.663 and 86.79
- [3H]ASEM binding remaining, single experiment ([2]; competitor log(M) -11): 96.153 and 103.569 and 104.162
- [3H]ASEM binding, normalised dose-response (DR replicates) ([2]; competitor log(M) -11): 97.033 and 84.779 and 104.521
- [3H]ASEM binding remaining, single experiment ([2]; competitor log(M) -13): 102.966 and 93.474 and 103.56
- [3H]ASEM binding, normalised dose-response (DR replicates) ([2]; competitor log(M) -13): 111.346 and 109.984

Structure (SMILES): CN1[C@@H]2CC[C@H]1C[C@@H](OC(=O)c1c[nH]c3ccccc13)C2 [tropisetron]
- activity at α7 nAChR [3]: agonist
- activity at chimeric channel α7–5HT3 [4]: agonist
- activity at chimeric channel α7–GlyR [5]: agonist
